By Kd is commonly meant the constant that tells how readily two partners part at equilibrium. Usually pKd stands for the negative decadic logarithm of the Kd, by convention in mol/L.

pKd: −log10 of the molar value. Activity calls are given as the source filed them. Cut-off read from the data, not from the text of the source, for most assays here: actives have a measured Kd and inactives only a lower limit.

The values that follow come from ChEMBL document CHEMBL3991601, “The target landscape of clinical kinase drugs” (Science, 2017).

The target in test [1] is T1, Serine/threonine-protein kinase LATS1 (Homo sapiens, UniProt O95835).
T1 sequence (O95835 whole entry): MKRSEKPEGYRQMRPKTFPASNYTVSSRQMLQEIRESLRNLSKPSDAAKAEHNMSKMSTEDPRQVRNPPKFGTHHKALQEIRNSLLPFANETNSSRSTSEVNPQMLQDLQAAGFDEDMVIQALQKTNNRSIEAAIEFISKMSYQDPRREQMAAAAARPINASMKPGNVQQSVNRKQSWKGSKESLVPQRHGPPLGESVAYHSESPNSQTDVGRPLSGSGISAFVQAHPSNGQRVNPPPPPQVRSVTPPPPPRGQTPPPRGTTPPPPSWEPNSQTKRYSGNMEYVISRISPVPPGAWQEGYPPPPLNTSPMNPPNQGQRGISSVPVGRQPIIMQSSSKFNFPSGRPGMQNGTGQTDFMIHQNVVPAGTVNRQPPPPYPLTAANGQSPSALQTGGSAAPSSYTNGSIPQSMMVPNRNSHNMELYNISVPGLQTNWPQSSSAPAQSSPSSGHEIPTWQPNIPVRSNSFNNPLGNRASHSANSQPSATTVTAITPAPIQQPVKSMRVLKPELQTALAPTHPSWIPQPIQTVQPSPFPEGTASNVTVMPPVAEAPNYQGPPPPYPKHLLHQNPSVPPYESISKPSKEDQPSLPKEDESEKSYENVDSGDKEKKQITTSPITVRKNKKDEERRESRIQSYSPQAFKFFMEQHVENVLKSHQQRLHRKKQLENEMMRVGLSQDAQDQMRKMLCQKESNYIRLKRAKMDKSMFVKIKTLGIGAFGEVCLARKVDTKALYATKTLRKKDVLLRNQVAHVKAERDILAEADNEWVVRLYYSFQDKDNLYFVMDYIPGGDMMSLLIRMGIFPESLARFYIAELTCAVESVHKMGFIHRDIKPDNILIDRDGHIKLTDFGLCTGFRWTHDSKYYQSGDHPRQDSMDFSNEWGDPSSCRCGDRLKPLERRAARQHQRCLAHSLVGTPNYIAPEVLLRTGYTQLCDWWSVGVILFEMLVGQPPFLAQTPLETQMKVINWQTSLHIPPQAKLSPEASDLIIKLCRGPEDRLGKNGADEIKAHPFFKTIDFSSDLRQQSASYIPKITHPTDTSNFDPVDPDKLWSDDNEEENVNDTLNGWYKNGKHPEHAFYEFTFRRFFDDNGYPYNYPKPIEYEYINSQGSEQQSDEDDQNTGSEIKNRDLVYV

Test [2] concerns the target 5'-AMP-activated protein kinase catalytic subunit alpha-1 (Homo sapiens, UniProt Q13131).
Test [3] has as its target cAMP-dependent protein kinase catalytic subunit alpha (Homo sapiens, UniProt P17612).
In test [4] the target is Serine/threonine-protein kinase/endoribonuclease IRE2 (Homo sapiens, UniProt Q76MJ5).
The target of test [5] is T2, Serine/threonine-protein kinase TBK1 (Homo sapiens, UniProt Q9UHD2).
T2 sequence (Q9UHD2 whole entry): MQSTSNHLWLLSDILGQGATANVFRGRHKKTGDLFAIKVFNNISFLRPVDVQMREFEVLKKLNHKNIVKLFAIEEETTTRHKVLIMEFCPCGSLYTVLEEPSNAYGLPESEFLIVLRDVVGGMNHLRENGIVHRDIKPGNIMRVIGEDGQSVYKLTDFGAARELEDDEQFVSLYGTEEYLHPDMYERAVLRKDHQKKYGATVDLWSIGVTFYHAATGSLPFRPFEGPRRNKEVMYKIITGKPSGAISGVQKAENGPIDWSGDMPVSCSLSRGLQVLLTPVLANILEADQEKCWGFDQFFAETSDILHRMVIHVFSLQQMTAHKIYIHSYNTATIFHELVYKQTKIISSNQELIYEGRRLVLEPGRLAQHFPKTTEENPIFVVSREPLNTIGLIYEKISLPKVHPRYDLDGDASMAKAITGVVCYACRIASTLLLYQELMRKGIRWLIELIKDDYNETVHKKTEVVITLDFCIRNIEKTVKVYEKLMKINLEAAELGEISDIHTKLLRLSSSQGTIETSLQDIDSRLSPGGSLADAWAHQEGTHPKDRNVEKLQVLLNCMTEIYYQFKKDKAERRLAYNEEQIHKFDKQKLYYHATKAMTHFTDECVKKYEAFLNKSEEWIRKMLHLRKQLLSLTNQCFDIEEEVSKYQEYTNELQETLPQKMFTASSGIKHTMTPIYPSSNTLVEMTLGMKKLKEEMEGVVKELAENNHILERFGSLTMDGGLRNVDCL

Test [6] has as its target Protein-tyrosine kinase 6 (Homo sapiens, UniProt Q13882).
The next test addresses Ephrin type-A receptor 5 (Homo sapiens, UniProt P54756).
The target in test [7] is Serine/threonine-protein kinase N1 (Homo sapiens, UniProt Q16512).
The target in another test is DNA topoisomerase 2-beta (Homo sapiens, UniProt Q02880).
Test [8] addresses Cyclin-dependent kinase 7 (Homo sapiens, UniProt P50613).
Note: in the data inactive means no Kd found up to 30 µM.

5'-AMP-activated protein kinase catalytic subunit alpha-1, sequence (Q13131 whole entry): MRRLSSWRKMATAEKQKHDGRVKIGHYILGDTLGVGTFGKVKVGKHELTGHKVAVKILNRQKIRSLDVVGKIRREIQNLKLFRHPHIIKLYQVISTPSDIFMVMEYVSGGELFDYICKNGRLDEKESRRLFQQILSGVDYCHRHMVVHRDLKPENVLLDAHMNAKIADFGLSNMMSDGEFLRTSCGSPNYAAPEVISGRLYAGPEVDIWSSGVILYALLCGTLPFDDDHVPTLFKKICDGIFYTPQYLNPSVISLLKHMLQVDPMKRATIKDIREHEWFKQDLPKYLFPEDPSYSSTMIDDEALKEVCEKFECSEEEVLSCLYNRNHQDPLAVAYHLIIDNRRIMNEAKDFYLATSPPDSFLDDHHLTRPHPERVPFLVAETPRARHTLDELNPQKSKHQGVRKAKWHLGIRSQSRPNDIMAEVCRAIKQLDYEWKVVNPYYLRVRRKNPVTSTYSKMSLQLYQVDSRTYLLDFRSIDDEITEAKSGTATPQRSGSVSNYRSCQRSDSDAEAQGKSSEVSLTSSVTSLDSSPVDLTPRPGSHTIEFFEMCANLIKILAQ
DNA topoisomerase 2-beta, sequence (Q02880 whole entry): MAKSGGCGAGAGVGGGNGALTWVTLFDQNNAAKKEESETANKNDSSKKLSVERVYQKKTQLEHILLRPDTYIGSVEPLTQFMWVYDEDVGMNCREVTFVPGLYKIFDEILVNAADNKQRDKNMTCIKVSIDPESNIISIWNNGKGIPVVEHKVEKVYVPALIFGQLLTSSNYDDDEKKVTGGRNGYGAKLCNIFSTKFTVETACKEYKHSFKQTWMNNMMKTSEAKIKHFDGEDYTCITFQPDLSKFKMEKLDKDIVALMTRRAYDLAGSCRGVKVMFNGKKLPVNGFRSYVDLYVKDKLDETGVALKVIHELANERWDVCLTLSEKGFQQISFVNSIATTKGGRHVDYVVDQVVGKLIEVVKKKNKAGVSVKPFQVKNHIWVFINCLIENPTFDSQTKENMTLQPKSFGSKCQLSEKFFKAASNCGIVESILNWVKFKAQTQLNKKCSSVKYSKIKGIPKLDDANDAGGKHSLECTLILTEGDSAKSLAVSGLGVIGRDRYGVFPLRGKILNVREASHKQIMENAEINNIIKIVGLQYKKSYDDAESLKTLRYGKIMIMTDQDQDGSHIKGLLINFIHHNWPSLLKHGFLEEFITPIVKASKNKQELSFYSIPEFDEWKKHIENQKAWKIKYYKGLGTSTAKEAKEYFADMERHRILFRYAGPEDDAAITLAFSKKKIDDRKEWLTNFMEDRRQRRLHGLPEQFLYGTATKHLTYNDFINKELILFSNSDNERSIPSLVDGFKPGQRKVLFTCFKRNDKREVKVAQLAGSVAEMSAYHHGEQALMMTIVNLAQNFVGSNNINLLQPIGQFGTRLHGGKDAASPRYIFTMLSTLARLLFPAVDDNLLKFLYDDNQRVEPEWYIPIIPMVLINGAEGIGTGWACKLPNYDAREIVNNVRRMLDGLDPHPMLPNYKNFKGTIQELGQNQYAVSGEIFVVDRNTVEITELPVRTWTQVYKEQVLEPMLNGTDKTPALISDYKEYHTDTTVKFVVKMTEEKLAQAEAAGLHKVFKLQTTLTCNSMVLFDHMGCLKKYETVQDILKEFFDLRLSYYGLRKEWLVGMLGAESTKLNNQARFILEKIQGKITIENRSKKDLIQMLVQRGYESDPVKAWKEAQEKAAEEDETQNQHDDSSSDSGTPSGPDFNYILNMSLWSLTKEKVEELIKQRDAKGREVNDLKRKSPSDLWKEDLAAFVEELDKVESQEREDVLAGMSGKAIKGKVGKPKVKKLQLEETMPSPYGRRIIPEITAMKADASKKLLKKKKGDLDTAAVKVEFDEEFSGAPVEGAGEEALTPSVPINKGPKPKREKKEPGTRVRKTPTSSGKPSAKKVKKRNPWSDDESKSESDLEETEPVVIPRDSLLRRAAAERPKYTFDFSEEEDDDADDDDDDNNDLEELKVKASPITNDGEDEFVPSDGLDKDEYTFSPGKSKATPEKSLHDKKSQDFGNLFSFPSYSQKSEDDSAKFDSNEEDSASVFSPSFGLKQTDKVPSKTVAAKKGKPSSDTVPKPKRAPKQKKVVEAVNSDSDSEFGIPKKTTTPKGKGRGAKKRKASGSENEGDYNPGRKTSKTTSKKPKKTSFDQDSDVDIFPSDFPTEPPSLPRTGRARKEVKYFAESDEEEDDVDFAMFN
Cyclin-dependent kinase 7, sequence (P50613 whole entry): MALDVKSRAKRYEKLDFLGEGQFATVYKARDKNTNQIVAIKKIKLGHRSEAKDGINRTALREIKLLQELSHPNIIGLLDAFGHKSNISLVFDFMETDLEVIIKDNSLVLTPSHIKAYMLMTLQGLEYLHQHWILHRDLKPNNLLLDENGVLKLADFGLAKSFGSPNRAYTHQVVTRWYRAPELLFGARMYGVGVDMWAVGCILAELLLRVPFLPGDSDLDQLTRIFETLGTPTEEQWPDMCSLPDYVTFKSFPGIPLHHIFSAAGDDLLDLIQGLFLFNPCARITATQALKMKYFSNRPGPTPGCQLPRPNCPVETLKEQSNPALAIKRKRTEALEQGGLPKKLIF
Protein-tyrosine kinase 6, sequence (Q13882 whole entry): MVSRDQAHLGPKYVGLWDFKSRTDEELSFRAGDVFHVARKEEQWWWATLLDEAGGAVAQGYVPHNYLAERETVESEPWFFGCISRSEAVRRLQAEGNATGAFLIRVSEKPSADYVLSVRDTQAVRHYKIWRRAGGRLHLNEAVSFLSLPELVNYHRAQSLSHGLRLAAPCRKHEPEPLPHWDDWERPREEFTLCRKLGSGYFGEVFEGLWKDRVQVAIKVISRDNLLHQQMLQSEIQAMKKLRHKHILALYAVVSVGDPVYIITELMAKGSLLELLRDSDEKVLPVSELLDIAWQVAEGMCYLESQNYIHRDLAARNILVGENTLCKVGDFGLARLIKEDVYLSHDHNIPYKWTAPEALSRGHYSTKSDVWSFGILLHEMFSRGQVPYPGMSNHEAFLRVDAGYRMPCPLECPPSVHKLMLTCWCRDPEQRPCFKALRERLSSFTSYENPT
Serine/threonine-protein kinase/endoribonuclease IRE2, sequence (Q76MJ5 whole entry): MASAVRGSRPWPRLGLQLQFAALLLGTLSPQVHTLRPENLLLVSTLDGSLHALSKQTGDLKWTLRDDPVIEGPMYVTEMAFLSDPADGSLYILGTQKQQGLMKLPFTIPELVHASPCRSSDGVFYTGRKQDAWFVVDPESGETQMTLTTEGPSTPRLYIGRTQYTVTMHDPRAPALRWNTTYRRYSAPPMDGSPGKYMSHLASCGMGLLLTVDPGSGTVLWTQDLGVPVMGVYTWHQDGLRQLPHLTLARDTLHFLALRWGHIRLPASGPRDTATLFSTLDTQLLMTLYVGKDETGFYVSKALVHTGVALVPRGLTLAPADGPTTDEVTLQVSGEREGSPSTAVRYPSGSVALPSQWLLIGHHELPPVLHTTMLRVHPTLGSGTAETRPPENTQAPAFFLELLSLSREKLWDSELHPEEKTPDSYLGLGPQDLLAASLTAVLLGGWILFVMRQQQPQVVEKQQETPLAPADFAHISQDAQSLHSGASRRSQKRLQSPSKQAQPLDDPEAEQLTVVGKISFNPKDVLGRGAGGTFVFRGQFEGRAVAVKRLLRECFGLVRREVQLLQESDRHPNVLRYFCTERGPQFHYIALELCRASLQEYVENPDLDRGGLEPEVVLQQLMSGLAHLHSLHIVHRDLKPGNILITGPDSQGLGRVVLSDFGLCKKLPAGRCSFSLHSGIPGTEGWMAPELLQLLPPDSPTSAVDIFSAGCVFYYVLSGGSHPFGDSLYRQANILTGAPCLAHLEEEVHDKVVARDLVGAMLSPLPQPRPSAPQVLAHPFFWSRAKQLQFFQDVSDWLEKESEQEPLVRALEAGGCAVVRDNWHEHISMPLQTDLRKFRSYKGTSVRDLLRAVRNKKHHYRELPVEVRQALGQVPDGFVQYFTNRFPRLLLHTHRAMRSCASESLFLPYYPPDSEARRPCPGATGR
Ephrin type-A receptor 5, sequence (P54756 whole entry): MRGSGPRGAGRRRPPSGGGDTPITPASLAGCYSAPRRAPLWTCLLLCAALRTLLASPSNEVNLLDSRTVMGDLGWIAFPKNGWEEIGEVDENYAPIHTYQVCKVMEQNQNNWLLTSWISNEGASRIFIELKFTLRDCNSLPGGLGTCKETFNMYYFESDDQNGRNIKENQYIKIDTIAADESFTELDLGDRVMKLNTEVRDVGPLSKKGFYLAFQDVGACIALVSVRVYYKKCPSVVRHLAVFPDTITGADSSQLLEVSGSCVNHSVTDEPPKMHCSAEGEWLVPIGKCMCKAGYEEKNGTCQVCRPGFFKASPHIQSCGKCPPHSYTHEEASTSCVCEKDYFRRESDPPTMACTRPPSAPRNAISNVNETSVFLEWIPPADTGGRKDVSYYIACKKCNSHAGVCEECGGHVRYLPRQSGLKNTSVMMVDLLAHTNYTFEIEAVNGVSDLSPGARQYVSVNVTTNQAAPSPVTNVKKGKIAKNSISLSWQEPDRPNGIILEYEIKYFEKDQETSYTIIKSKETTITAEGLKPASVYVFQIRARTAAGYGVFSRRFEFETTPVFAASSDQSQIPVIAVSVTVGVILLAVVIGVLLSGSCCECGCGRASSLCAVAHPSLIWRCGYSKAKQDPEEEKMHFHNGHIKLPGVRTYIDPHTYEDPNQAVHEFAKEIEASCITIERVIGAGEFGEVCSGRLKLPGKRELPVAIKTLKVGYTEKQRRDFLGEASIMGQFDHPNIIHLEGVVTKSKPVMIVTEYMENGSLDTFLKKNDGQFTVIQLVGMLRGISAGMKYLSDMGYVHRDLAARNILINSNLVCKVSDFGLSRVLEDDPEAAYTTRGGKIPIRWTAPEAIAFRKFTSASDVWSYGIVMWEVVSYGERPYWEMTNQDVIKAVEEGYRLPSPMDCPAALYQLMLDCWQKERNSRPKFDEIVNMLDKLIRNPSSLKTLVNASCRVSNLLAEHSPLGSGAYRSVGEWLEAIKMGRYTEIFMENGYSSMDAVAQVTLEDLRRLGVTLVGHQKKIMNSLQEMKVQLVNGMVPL

`CCc1nc(C(N)=O)c(Nc2ccc(N3CCC(N4CCN(C)CC4)CC3)c(OC)c2)nc1NC1CCOCC1` [GILTERITINIB]: the Kd is 0.221 µM (active) in test [1]; > 30 µM (inactive) in test [2]; > 30 µM (inactive) in test [3]; > 30 µM (inactive) in test [4]; > 30 µM (inactive) in test [5]; > 30 µM (inactive) in test [6]. Further, the Kd (on Ephrin type-A receptor 5; in test [7]; at DNA topoisomerase 2-beta; in [8]) was > 30 µM (inactive) each time.
As to `FC(F)(F)c1ccc(CNc2ccc(Cc3c[nH]c4ncc(Cl)cc34)cn2)cn1` [PEXIDARTINIB], the Kd in test [1], in test [2], in test [3], in test [4], in test [5] and in test [6] was > 30 µM (inactive) in each case. Also, the Kd (on Ephrin type-A receptor 5; in [7]; at DNA topoisomerase 2-beta; in test [8]) was > 30 µM (inactive) throughout.
With `CNC(=O)c1cc(COc2nnc(Nc3ccc(Cl)cc3)c3ccoc23)ccn1` [TELATINIB], the Kd in test [1], in test [2], in [3], in test [4], in test [5] and in test [6] was > 30 µM (inactive) throughout. Besides, the Kd (on Ephrin type-A receptor 5; in test [7]; at DNA topoisomerase 2-beta; in test [8]) was > 30 µM (inactive) throughout.
With `Cc1cc(-c2cc(OC(=O)c3ccccc3)ccc2Cl)cc2nnc(Nc3ccc(OCCN4CCCC4)cc3)nc12` [TG100-801], the Kd in test [1], in test [2], in [3], in test [4], in test [5] and in [6] was > 30 µM (inactive) throughout. Further, the Kd (at Ephrin type-A receptor 5; in test [7]; on DNA topoisomerase 2-beta; in [8]) was > 30 µM (inactive) in each case.
Regarding `Cc1cc(C(=O)Nc2cc(Oc3ccc4nc(NC(=O)C5CC5)cn4n3)ccc2C)n(C)n1` [TAK-593], the Kd in test [1], in test [2], in test [3], in [4], in test [5] and in test [6] was > 30 µM (inactive) in each case. In addition, the Kd (on Ephrin type-A receptor 5; in [7]; on DNA topoisomerase 2-beta; in [8]) was > 30 µM (inactive) throughout.
As to `O=c1[nH]c([C@@H]2CCCN2)nc2c1oc1ccc(Cl)cc12`, the Kd in [1], in test [2], in test [3], in [4], in test [5] and in test [6] was > 30 µM (inactive) throughout. Moreover, the Kd (at Ephrin type-A receptor 5; in [7]; at DNA topoisomerase 2-beta; in test [8]) was > 30 µM (inactive) each time.
For the compound `Cc1c(Cn2c(C)nc3c(C(=O)O)cc(N4CCOCC4)cc32)cccc1C(F)(F)F` [GSK-2636771], the Kd in test [1], in [2], in [3], in [4], in test [5] and in test [6] was > 30 µM (inactive) each time. For the same compound, the Kd (on Ephrin type-A receptor 5; in test [7]; at DNA topoisomerase 2-beta; in test [8]) was > 30 µM (inactive) each time.
Turning to `CC(C)(O)CC(=O)NCCn1ccc2ncnc(Nc3ccc(Oc4cccc(C(F)(F)F)c4)c(Cl)c3)c21` [TAK-285], the Kd in [1], in test [2], in [3], in test [4], in [5] and in test [6] was > 30 µM (inactive) throughout. The Kd (on Ephrin type-A receptor 5; in test [7]; on DNA topoisomerase 2-beta; in [8]) was > 30 µM (inactive) in each case.
For the compound `C=CCN(/C=C1/C(=O)O[C@H](COC)[C@@]2(C)C1=C(O)C(=O)C1=C2[C@H](OC(C)=O)C[C@]2(C)C(=O)CC[C@@H]12)CC=C` [SONOLISIB], the Kd in [1], in test [2], in test [3], in test [4], in test [5] and in [6] was > 30 µM (inactive) in each case. In addition, the Kd (on Ephrin type-A receptor 5; in test [7]; at DNA topoisomerase 2-beta; in [8]) was > 30 µM (inactive) each time.
With `CN1CCN(c2nc(C3=C(c4c[nH]c5ccccc45)C(=O)NC3=O)c3ccccc3n2)CC1` [SOTRASTAURIN], the Kd in test [1], in [2], in test [3], in [4], in [5] and in [6] was > 30 µM (inactive) throughout. In addition, the Kd (at Ephrin type-A receptor 5; on DNA topoisomerase 2-beta; in test [8]) was > 30 µM (inactive) each time. The compound also showed a pKd in [7] of 5.53.
In the case of `COc1cc2ncnc(Nc3ccc(F)c(Cl)c3)c2cc1NC(=O)/C=C/CN1CCCCC1` [DACOMITINIB ANHYDROUS], the Kd in test [1], in test [2], in [3], in test [4], in test [5] and in test [6] was > 30 µM (inactive) each time. Besides, the Kd (at Ephrin type-A receptor 5; in [7]; at DNA topoisomerase 2-beta; in [8]) was > 30 µM (inactive) throughout.
